{
  "source": "ChEMBL document CHEMBL3045919",
  "about": "“Disease-controlling effect of a novel fungicide pyribencarb against Botrytis cinerea” (J Pestic Sci, 2010)",
  "key": {"[1]": {"tested_on": "Botrytis cinerea", "assay": "Antifungal activity against Botryotinia fuckeliana in Cucumber seedlings assessed as reduction of gray mold diseases compound spraying was performed 3 hr prior to inoculation by preventive effect assay", "format": "functional, organism-based"}, "[2]": {"tested_on": "Botrytis cinerea", "assay": "Antifungal activity against Botryotinia fuckeliana in Kidney bean assessed as Kidney bean gray mold diseased pods in field trials at 500 ug/ml 3 applications at 9 days intervals (reference value: 21%)", "format": "functional"}, "[3]": {"tested_on": "Botrytis cinerea", "assay": "Antifungal activity against Botryotinia fuckeliana in Eggplant seedlings assessed as Eggplant gray mold diseased flowers and fruits in field trials at 200 ug/ml 3 applications at 7 days intervals (reference value: 52.7%)", "format": "functional"}, "[4]": {"tested_on": "Botrytis cinerea", "assay": "Antifungal activity against Botryotinia fuckeliana in Eggplant seedlings assessed as Eggplant gray mold diseased flowers and fruits in field trials at 500 ug/ml 3 applications at 7 days intervals (reference value: 52.7%)", "format": "functional"}, "[5]": {"tested_on": "Botrytis cinerea", "assay": "Antifungal activity against Botryotinia fuckeliana in Cucumber seedlings assessed as reduction of gray mold diseases", "format": "functional, organism-based"}, "[6]": {"tested_on": "Botrytis cinerea", "assay": "Antifungal activity against Botryotinia fuckeliana in Cucumber seedlings cotyledon stage assessed as suppression of gray mold diseases measured after 7 days by rain fastness activity assay", "format": "functional, organism-based"}, "[7]": {"tested_on": "Botrytis cinerea", "assay": "Antifungal activity against Botryotinia fuckeliana in Cucumber seedlings assessed as reduction of gray mold diseases at 3 ug/ml compound spraying was performed 48 hr after inoculation by lesion development inhibitory assay", "format": "functional", "parameters": "scale not given: the % may be the effect or the level left"}, "[8]": {"tested_on": "Botrytis cinerea", "assay": "Antifungal activity against Botryotinia fuckeliana in Cucumber seedlings assessed as reduction gray mold diseases at 3 ug/ml compound spraying was performed 3 hr prior to inoculation by preventive effect assay", "format": "functional", "parameters": "scale not given: the % may be the effect or the level left"}, "[9]": {"tested_on": "Botrytis cinerea", "assay": "Antifungal activity against Botryotinia fuckeliana in Cucumber seedlings assessed as reduction of gray mold diseases at 3 ug/ml compound spraying was performed 24 hr after inoculation by curative effect assay", "format": "functional", "parameters": "scale not given: the % may be the effect or the level left"}, "[10]": {"tested_on": "Botrytis cinerea", "assay": "Antifungal activity against Botryotinia fuckeliana in Kidney bean assessed as Kidney bean gray mold diseased pods in field trials at 100 ug/ml 3 applications at 9 days intervals (reference value: 21%)", "format": "functional"}, "[11]": {"tested_on": "Botrytis cinerea", "assay": "Antifungal activity against Botryotinia fuckeliana in Eggplant seedlings assessed as Eggplant gray mold diseased flowers and fruits in field trials at 100 ug/ml 3 applications at 7 days intervals (reference value: 52.7%)", "format": "functional"}, "[12]": {"tested_on": "Cucumis sativus", "assay": "Translaminar activity against kidney bean gray mold assessed as drug transport in Phaseolus vulgaris (kidney bean) from adaxial to abaxial at 100 to 200 ug/ml measured after 3 days", "format": "ADME, organism-based", "settings": "in vivo, 72 h"}, "[13]": {"tested_on": "Botrytis cinerea", "assay": "Antifungal activity against Botryotinia fuckeliana in Kidney bean assessed as Kidney bean gray mold diseased pods in field trials at 200 ug/ml 3 applications at 9 days intervals (reference value: 21%)", "format": "functional"}},
  "note": "Activity calls are given as the source filed them. The calls are words filed in the database; no cut-off is given here.",
  "data": [
    {"smiles": "O=C(Nc1ccccc1-c1ccc(Cl)cc1)c1cccnc1Cl", "note": "[BOSCALID]", "values": [
      {"measurement": "EC50", "setting": "[1]", "value": 0.8, "unit": "µg/mL"}
    ]},
    {"smiles": "CC1(C(=O)Nc2ccc(O)c(Cl)c2Cl)CCCCC1", "note": "[FENHEXAMID]", "values": [
      {"measurement": "EC50", "setting": "[1]", "value": 2.13, "unit": "µg/mL"}
    ]},
    {"smiles": "O=[N+]([O-])c1cc(C(F)(F)F)c(Cl)c([N+](=O)[O-])c1Nc1ncc(C(F)(F)F)cc1Cl", "note": "[FLUAZINAM]", "values": [
      {"measurement": "Activity", "setting": "[2]", "value": 7.8, "unit": "%"}
    ]},
    {"smiles": "N#Cc1c[nH]cc1-c1cccc2c1OC(F)(F)O2", "note": "[FLUDIOXONIL]", "values": [
      {"measurement": "Activity", "setting": "[3]", "value": 16.8, "unit": "%"}
    ]},
    {"smiles": "CC12CC1(C)C(=O)N(c1cc(Cl)cc(Cl)c1)C2=O", "note": "(stereo not drawn) [PROCYMIDONE]", "values": [
      {"measurement": "Activity", "setting": "[2]", "value": 4.6, "unit": "%"},
      {"measurement": "Activity", "setting": "[4]", "value": 12.3, "unit": "%"}
    ]},
    {"smiles": "COC(=O)NCc1cc(/C(C)=N/OCc2cccc(C)n2)ccc1Cl", "note": "[Pyribencarb]", "values": [
      {"measurement": "EC50", "setting": "[1]", "value": 0.55, "unit": "µg/mL"},
      {"measurement": "EC50", "setting": "[5]", "value": 0.006, "unit": "µg/mL"},
      {"measurement": "MIC", "setting": "[5]", "value": 0.1, "unit": "µg/mL"},
      {"measurement": "inhibition", "setting": "[6]", "value": "Active"},
      {"measurement": "Activity", "setting": "[3]", "value": 3.4, "unit": "%"},
      {"measurement": "Activity", "setting": "[7]", "value": 88.5, "unit": "%"},
      {"measurement": "Activity", "setting": "[8]", "value": 72.1, "unit": "%"},
      {"measurement": "Activity", "setting": "[9]", "value": 80.4, "unit": "%"},
      {"measurement": "Activity", "setting": "[10]", "value": 5.3, "unit": "%"},
      {"measurement": "Activity", "setting": "[11]", "value": 9.8, "unit": "%"},
      {"measurement": "Drug transport", "setting": "[12]", "value": "Active"},
      {"measurement": "Activity", "setting": "[13]", "value": 3.7, "unit": "%"}
    ]}
  ]
}
